Values of other authors as cited in US20160083345A1, “POLYMORPHIC FORMS OF LOMITAPIDE AND ITS SALTS AND PROCESSES FOR THEIR PREPARATION” (CADILA HEALTHCARE LIMITED, priority 2014, published 2016).
Structures can show the parent of a compound that is named as a salt. Where two headings read alike, the source gives them in different places.

O=C(NC1CCN(CCCCC2(C(=O)NCC(F)(F)F)c3ccccc3-c3ccccc32)CC1)c1ccccc1-c1ccc(C(F)(F)F)cc1 [Lomitapide mesylate, N-(2,2,2-trifluoroethyl)-9-[4-[4-[[[4′(trifluoromethyl)[1,1′-biphenyl]-2-yl]carbonyl]amino]-1-piperidinyl]butyl]-9H-fluorene-9carboxamide methanesulfonate]
solubility (1-octanol): sparingly soluble
solubility (2-butanol): soluble
solubility (2-propanol): sparingly soluble
solubility (acetone): freely soluble
solubility (acetonitrile): soluble
solubility (aqueous solutions of pH 2 to 5): slightly soluble
solubility (ethanol): freely soluble
solubility (ethyl acetate): slightly soluble
solubility (heptane): insoluble
solubility (methanol): freely soluble
solubility (methylene chloride): soluble
